1 compound from patent US11389536B2 (priority 2015, dated 2022) can be followed below.

The subject of series [1] is lungs of athymic nude mice. Put plainly: Lung histology for radiation-induced pneumonitis and fibrosis (H&E, Masson's trichrome). In kind it is in vivo. The note with it: irradiated lungs. How it is done:
For the in vivo studies, athymic nude mice are housed in the specific pathogen-free (SPF) Cancer Research Institute animal facility which exceeds the national requirements for animal care, with two conventional mouse rooms, two nude mouse rooms, and one quarantine room. Radiation was administered using an IC160 X-ray cell culture and small animal irradiation system (Kimtron Inc., Woodbury, Conn., USA) located inside the animal facility. Nine weeks post radiation, the mice were sacrificed and the lungs were harvested and processed for hematoxylin and eosin (H&E) staining. For immunohistochemistry and hematoxylin and eosin-staining procedures, one part of the tumor tissue is formalin-fixed and paraffin-embedded and another part embedded in OCT compound (Miles, Inc., Elkhart, Ind.), rapidly frozen in liquid nitrogen, and stored at […] for sectioning. Immunofluorescence microscopy is performed using a 20× objective on an epifluorescence microscope equipped with narrow bandpass excitation filters mounted in a filter wheel (Ludl Electronic Products, Hawthorne, N.Y.).
To determine the degree of radiation-induced pneumonitis, the lungs were harvested and processed for histology and H&E staining (FIGS. 23A-23D) and the amount of fibrosis and collagen deposition, indicative of chronic lung conditions, was measured using Masson's trichrome stain (FIGS. 23E-23H).

In series [2] the test system is non-tumor-bearing athymic nude mice. The procedure: Non-tumor-bearing athymic nude mice were exposed to fractionated doses of 30 Gy radiation (weekly administration of 5 Gy) in the presence or absence of twice weekly intravenous (i.v.) injections of Ce02 or intraperitoneal (i.p.) injections of Amifostine 30 min prior to radiation. Amifostine is a free radical scavenger. […] Treatments continued for […] for a total dose of 30 Gy radiation. The mice were killed and necropsied only when they became moribund or the experiment was terminated. The weight and mortality of each mouse was measured throughout the experiment and median and percent survival was determined, as shown in FIG. 22E.

Where two headings read alike, the source gives them in different places.

Take `NCCCNCCSP(=O)(O)O` [Amifostine]: the “fibrosis and collagen deposition (Masson's Trichrome stain)” value in series [1] was “fibrosis and collagen deposition were common”. For the same compound, the median survival time came out at 119 days in series [2] (agent alone, no radiation (Amifostine 150 mg/kg i.p.)) and 81 days in series [2] (combination with radiation (5 Gy fractions, total 30 Gy), CONPs 15 nM i.v. twice weekly, Amifostine i.p. 30 min prior to radiation). Besides, the “tolerability / toxicity to mice” value in series [2] (athymic nude mice) is recorded as “highly toxic to the mice”.
